{"source": "patent US20050227989A1", "about": "“Polycyclic thiazoles as potassium ion channel modulators” (ICAgen, Inc., priority 2004, published 2005)", "origin": "cited, not measured here", "molecular_target": "SK2 subtype channels (Rattus norvegicus, UniProt P70604)", "conditions": "patch clamp; cited from earlier work", "data": [{"smiles": "NC(=O)N1c2ccccc2C=Cc2ccccc21", "note": "[carbamazepine]", "values": [{"measurement": "block of SK2 channel currents", "value": "block SK2 channel currents with micromolar affinity"}]}, {"smiles": "CN(C)CCCN1c2ccccc2Sc2ccc(Cl)cc21", "note": "[chlorpromazine]", "values": [{"measurement": "block of SK2 channel currents", "value": "block SK2 channel currents with micromolar affinity"}]}, {"smiles": "Nc1c2c(nc3ccccc13)CCCC2", "note": "[tacrine]", "values": [{"measurement": "block of SK2 channel currents", "value": "block SK2 channel currents with micromolar affinity"}]}]}
